In one data set the test system is Cryptosporidium parvum. Briefly: qRT-PCR assay of the growth of C. parvum in vitro in HCT-8 host cells (primary and secondary screening, EC50). Format: cell-based. On the technique in general: Real-time PCR tracks product formation cycle by cycle.
Where [1] appears, read: primary screening at 10 uM, from Hs18S ΔCT.
Setting [2] is: primary screening at 10 uM, treated vs control.

Like-named read-outs stand apart in the source and are kept apart here.

Broadly, the inhibition is the change of the read-out against control, counted positive when it falls.

With `COc1ccc(/C=C/c2cc(O)cc(O[C@@H]3O[C@H](CO)[C@@H](O)[C@H](O)[C@H]3O)c2)cc1` [PICEID METHYL ETHER], the “Inhibition (%)” value in the data set with Cryptosporidium parvum (primary screening at 10 uM) was 15.82%. Also, the “Cytotoxicity (%)” value with HCT-8 host cells (Hs18S) (setting [1]) is reported as 30.3%. The “Hs18S ΔCT” value in the data set with HCT-8 host cells (Hs18S) (setting [2]) amounted to 0.52.
The matching figures for `COc1cc([C@@H]2c3cc4c(cc3[C@H](OC(C)=O)[C@H]3COC(=O)[C@@H]23)OCO4)cc(OC)c1OC` [PICROPODOPHYLLIN ACETATE]: 20.82%, 50.6% and 1.02.
In the case of `COc1cc([C@@H]2c3cc4c(cc3[C@H](OC(C)=O)[C@H]3COC(=O)[C@H]23)OCO4)cc(OC)c1OC` [PODOPHYLLIN ACETATE], in the data set on Cryptosporidium parvum (primary screening at 10 uM), the “Inhibition (%)” value stood at 72.02%. Also, the “% Inhibition (3.3 uM)” value with Cryptosporidium parvum (secondary screening at 3.3 uM) was determined as 64%. The “Cytotoxicity (%)” value in the data set on HCT-8 host cells (Hs18S) (setting [1]) was determined as 33.2%. The “Hs18S ΔCT” value in the data set on HCT-8 host cells (Hs18S) (setting [2]) turned out to be 0.58.
For `CC(C)c1c(O)c(-c2cc3c(c(C(C)C)c2O)CCC2C(C)(C)CCC[C@]32C)cc2c1CCC1C(C)(C)CCC[C@]21C` (stereo partly drawn) [PODOTOTARIN], the “Inhibition (%)” value in the data set on Cryptosporidium parvum (primary screening at 10 uM) is -4.91%. Moreover, the “Cytotoxicity (%)” value in the data set with HCT-8 host cells (Hs18S) (setting [1]) stood at 2.5%. Moreover, the “Hs18S ΔCT” value in the data set with HCT-8 host cells (Hs18S) (setting [2]) was determined as 0.04.
For `COc1ccc(-c2coc3c4c(c(CC=C(C)C)c(O)c3c2=O)OC(C)(C)C=C4)cc1OC` [POMIFERIN DIMETHYL ETHER], in that order: -58.61%, 6.1% and 0.09.
The matching figures for `O=c1cc(-c2ccccc2)oc2cccc(O)c12` [PRIMULETIN]: -14.55%, 3.1% and 0.05.
For `O=C(O)[C@@H]1CCCN1` [PROLINE (L)], the “Inhibition (%)” value in the data set with Cryptosporidium parvum (10 µM) is -22.72. In the data set on HCT-8 host cells (Hs18S), the “Hs18S ΔCT” value is 0.03. Moreover, in the data set on HCT-8 host cells (Hs18S) (10 µM), the “Cytotoxicity (%)” value turned out to be 1.9.
Take `C[C@@H]1C[C@H](O)[C@@]2(O)[C@]13CC(=O)OC[C@@]2(C)[C@@](C)(O)C(=O)C3` [PSEUDO-ANISATIN]: the “Inhibition (%)” value with Cryptosporidium parvum (primary screening at 10 uM) is listed as -5.73%. The “Cytotoxicity (%)” value in the data set with HCT-8 host cells (Hs18S) (setting [1]) is listed as 9.2%. Besides, the “Hs18S ΔCT” value with HCT-8 host cells (Hs18S) (setting [2]) is on record as 0.14.
For `O=C(O)c1cc(O)c(=O)c2c(O)c(O)c(O)cc2c1` [PURPUROGALLIN-4-CARBOXYLIC ACID], in that order: 2.20%, 7.3% and 0.11.
The matching figures for `C=C(C)CCCC(C)CCOC(C)=O` (stereo not drawn) [RHODINYL ACETATE]: -15.58%, 10.9% and 0.17.
With `Cc1cc2nc3c(=O)[nH]c(=O)nc-3n(C[C@H](O)[C@H](O)[C@H](O)COP(=O)([O-])O)c2cc1C.[Na+]` [RIBOFLAVIN 5-PHOSPHATE SODIUM], the “Inhibition (%)” value with Cryptosporidium parvum (primary screening at 10 uM) is -3.47%. Besides, in the data set with HCT-8 host cells (Hs18S) (setting [1]), the “Cytotoxicity (%)” value is -25.0%. Also, the “Hs18S ΔCT” value in the data set on HCT-8 host cells (Hs18S) (setting [2]) is -0.32.
In the case of `NC[C@H]1O[C@H](O[C@H]2[C@H](O[C@@H]3O[C@H](CO)[C@@H](O)[C@H]3O)[C@@H](O)[C@H](N)C[C@@H]2N)[C@H](N)[C@@H](O)[C@@H]1O.O=S(=O)(O)O` [RIBOSTAMYCIN SULFATE], the “Inhibition (%)” value with Cryptosporidium parvum (primary screening at 10 uM) is -35.94%. Also, in the data set with HCT-8 host cells (Hs18S) (setting [1]), the “Cytotoxicity (%)” value was -2.0%. Further, the “Hs18S ΔCT” value in the data set on HCT-8 host cells (Hs18S) (setting [2]) is recorded as -0.03.
Consider `COc1ccc2c(c1O)-c1c(OC)c(OC)cc3c1[C@H](C2)N(C)CC3` [S-ISOCORYDINE (+)], for which the “Inhibition (%)” value in the data set on Cryptosporidium parvum (primary screening at 10 uM) is -15.72%. In the data set on HCT-8 host cells (Hs18S) (setting [1]), the “Cytotoxicity (%)” value is listed as -47.4%. In addition, the “Hs18S ΔCT” value in the data set with HCT-8 host cells (Hs18S) (setting [2]) is listed as -0.56.
The matching figures for `COc1cc2c(cc1O)CCNC2C` (stereo not drawn) [SALSOLINE]: -1.38%, -0.9% and -0.01.
For `CC1(C)CCC[C@]2(C)[C@H]3CC(=O)O[C@]3(C)CC[C@@H]12` [SCLAREOLIDE], in that order: 26.58%, 32.7% and 0.57.
Consider `O=C(O)C1=C[C@@H](O)[C@@H](O)[C@H](O)C1` [SHIKIMIC ACID], for which the inhibition at 10 µM in the data set on Cryptosporidium parvum (Cryptosporidium parvum, HCT-8, primary screening at 10 uM, read-out: Inhibition (%)) was found to be 10.3%. Also, the “Hs18S ΔCT” value with HCT-8 host cells (Hs18S) (human, 41 h, 10 μM) amounted to 0.06.
As for `Cc1c[nH]c2ccccc12` [SKATOLE], the “Inhibition (%)” value in the data set with Cryptosporidium parvum (primary screening at 10 uM) is listed as 25.24%. Moreover, the “Cytotoxicity (%)” value in the data set with HCT-8 host cells (Hs18S) (setting [1]) is reported as 18.5%. In addition, in the data set with HCT-8 host cells (Hs18S) (setting [2]), the “Hs18S ΔCT” value was found to be 0.30.
The matching figures for `C[C@@H]1CC[C@@]2(OC1)O[C@H]1C[C@H]3[C@@H]4CC[C@@H]5C[C@@H](O)CC[C@]5(C)[C@H]4CC[C@]3(C)[C@H]1[C@@H]2C` [SMILAGENIN]: 13.52%, 33.2% and 0.58.
The matching figures for `CC(C)=CCC/C(C)=C/CC/C(C)=C/CC/C(C)=C/CC/C(C)=C/CC/C(C)=C/CC/C(C)=C/CC/C(C)=C/CC/C(C)=C/CO` [SOLANESOL]: -25.87%, 10.5% and 0.16.

Values taken from paper PMC6736568, “Discovery of Novel Anti-cryptosporidial Activities From Natural Products by in vitro High-Throughput Phenotypic Screening” (Frontiers in Microbiology, 2019).
